Results on two molecules are retold here after patent US12502369B2, “Methods of cancer treatment” (K-GEN, INC., priority 2015, dated 2025).

“Also recorded” adds a separate entry of the source.

Format in all cases: cell-based
For one experiment, the system named is Wnt signaling pathway. The experiment is described as follows: TOPFlash / TK-RL Dual Luciferase assay (Wnt signaling), A549. The note with it: 24 hours, K101A 1, 3, 10 μM, K102 0.03, 0.1, 0.3 μM. As for the experimental part:
A549 cells (20K cells/well) were seeded in 96-well plates on Day 1. Cells were transfected with a mixture of TOPFlash firefly luciferase reporter plasmid M50 (300 ng/well) (Adagene) and an internal control plasmid pRL-TK-Renilla luciferase (20 ng/well) (Promega) using FuGene transfection reagent (plasmid:FuGene=1:4) (Promega) on Day 2. […] Luciferase activities in treated cells were measured using Dual-Glo Luciferase Kit according to manufacturer's instructions (Promega) on Envision (Perkin Elmer). TOPFlash has been used as a reporter for activation of Wnt signaling pathway. […] It has been reported that PKC activators, via suppression of K-Ras stemness pathway, can block canonical Wnt signaling in pancreatic cancer cells. The data here indicate that PKC activator can also block canonical Wnt signaling in lung cancer cells.

The next experiment has as its system phospho-PKC (pan). Nature of the experiment: Western blot of phospho-PKC (pan) in A549 cells. Here is the method: Cancer cells (2-8 million cells) were seeded in 10 cm dishes and grown overnight. For A549 lung cancer cell line, about 3 million cells were seeded. Cells were then treated with different drugs at indicated concentrations (see Table 8) for a period of time up to 48 hours. Cells were lysed in 0.3-0.5 mL of RIPA buffer (Sigma) supplemented with protease inhibitors (Roche) and phosphatase inhibitors (Sigma). Lysates were assayed for protein concentration using BCA kit (Pierce). Normalized amount of lysates (20-30 μg protein/lane) were run on 4-12% NuPage gel (Life Technologies) and the proteins were transferred to the PVDF or nitrocellulose membrane using iBlot® Transfer Stack (Life Technologies). The membranes were probed with primary antibodies shown in Table 8 at 4° C. overnight after blocking with 1×TBST containing 5% non-fat milk. Antibodies from other vendors could also be used in Western blot analysis. After washing 5 times with 1×TBS containing 0.1% Tween20, the membranes were probed with 2nd antibodies Anti-mouse IgG Dylight 800 conjugate or Anti-rabbit IgG DyLight 680 conjugate (1:10000; Cell signaling or similar IR 2nd antibodies from different vendors) at room temperature for one hour. After washing 5 times, the membranes were scanned using Odyssey® Imaging System (Licor Biosciences).

The test system of experiment [1] is K-Ras mutant pancreatic, lung, and colon cancer cell lines, leukemia cell lines. The experiment is described as follows: Proliferation assays, panel of cancer cell lines (summary statements). Here is the method: Briefly, cells at a density of 1,000-10,000 cells/well were seeded in 96-well plates and incubated at 37′C for 24 hours. A series of 9 different concentrations of compound stocks (500×) were created by 3-fold serial dilution in DMSO. These compounds were further diluted in culture media and then added to cells so that the final DMSO concentration was 0.2%. After 96 hours of incubation, 50 μL of CellTiter Glo reagent (Promega) was added to each well and luminescence was measured after 10 minutes using EnVision (PerkinElmer). […] The dose range for most compounds was 4.6 nM-30 μM. The dose ranges for some compounds were adjusted downward to 0.46 nM-3 μM or 0.08 nM-0.5 μM or 0.03 nM-0.2 μM. Luminescence from cells treated with […] alone was set as Max and % of inhibition was calculated as follows: Inhibition %=(Max-Sample value)/Max*100. Data was analyzed using XL-fit software (ID Business Solutions Ltd.) and EC50, relative EC50, and % of top inhibition were calculated. The results are shown in Tables 3-6 for pancreatic cancer, lung cancer, colon/gastric cancer, and leukemia cell lines.

In another experiment the test system is PKCμ. Nature of the experiment: PKCμ phosphorylation in A549, HCT116, SW620, Panc02.13 cells, Western blot. As to conditions: 30 minutes. As for the experimental part: Non-cancerous lung fibroblast cell line HFL-1 or cancer cells (2-8 million cells) were seeded in 10 cm dishes and grown overnight so that the cells were about 40-80% confluent before treatment with the compound. Cells were then treated with different drugs at indicated concentrations (see descriptions for FIG. 11 and FIG. 12) for 30 minutes. Cell lysate preparation, protein quantitation, SDS-PAGE, and Western blotting procedures are described in Example 2 and 4. Primary antibodies used in this Example and later Examples of this application are shown in Table A. Secondary antibodies Anti-mouse IgG HRP conjugate or Anti-rabbit IgG HRP conjugate (dilutions from 1:2000-1:10000) were used. Western blot membranes were scanned using Imagequant LAS4000 (GE).
(A western blot detects proteins with antibodies after separation by electrophoresis.)

As to `CC(=O)O[C@@]12C[C@@H](C)[C@]3(O)C4C=C(C)C(=O)[C@@]4(O)CC(CO)=C[C@H]3[C@@H]1C2(C)C` (stereo partly drawn) [Compound K-101A, Prostratin], in the experiment with Wnt signaling pathway, the “maximal inhibition of TOPFlash activity” value is on record as “about 60%”. The “phospho-PKC (pan) level” value in the experiment on phospho-PKC (pan) (0.5 uM of K-101A) is reported as “without affecting”. Besides, the “phospho-PKC (pan) levels” value with phospho-PKC (pan) (48 hours, K-103, K-102 at 0.5 μM, K-101A at 2.5 μM) is recorded as “reduction”.

With `C/C=C(/C)C(=O)O[C@H]1C(C)=C[C@]23C(=O)[C@@H](C=C(CO)[C@@H](O)[C@]12O)[C@H]1[C@@H](C[C@H]3C)C1(C)C` [Compound K-102, Ingenol-3-angelate, reference compound], in experiment [1], the “potency in proliferation inhibition relative to prostratin” value is “more potent in proliferation inhibition”. In the experiment with PKCμ, the “PKCμ activation, phosphorylation at Ser744/748” value was “observed for all four cancer cell lines”; the “PKCμ activation, phosphorylation at Ser916” value is “observed primarily in cell lines A549 and Pan 02,13; also recorded: observed primarily in cell lines A549 and Panc02.13”.
